Test results: PMC11125357, “Assessment of Anticancer Properties of Argemone mexicana L. and Berberine: A Comparative Study” (Plants, 2024)
Where “and” joins values, the source holds several entries; their conditions need not be identical. Identical values can stand only once. Entries after “also recorded” stand apart in the source; their conditions may differ. Marks after values point to notes of the source that are not given here.

Key:
[1] = ABTS scavenging test; conditions: 50% decrease of ABTS radical, 734 nm, mean ± SD
Description: (§1) The antioxidant activity was determined by the DPPH, ABTS radical scavenging, and FRAP (Ferric Reducing Antioxidant Power) methods. In the DPPH and ABTS assays, Vitamin C served as the positive control. In all treatment evaluations, the concentrations ranged from 15.63, 31.25, 62.50, […], 250, 500, and 1000 µg/mL.
The antioxidant activity was determined using the ABTS radical scavenging method, where the antioxidant activity (free radical scavenging capacity) was quantified as IC50 in µg/mL. […] The ABTS radical scavenging assay was conducted in 96-well plastic microplates (Corning®), and the percentage inhibition of ABTS at 734 nm was calculated using Formula (8) as follows:(8) ABTS scavenging %=Abs734nm Control−Abs734 Sample/Abs734nm Control×100

[2] = system: PBMC (human peripheral blood mononuclear) cells; assay: MTT cell viability assay in PBMC; type: cell-based; conditions: 72 h of incubation, mean ± SD
Description: (§2) The HEP-G2 cancer cell line and the normal VERO cell line were cultured in DMEM supplemented with 10% FBS, 2% NaHCO3, and HEPES. All tests performed with these cells were carried out in 96-well flat-bottom plastic microplates (Corning® Labware and Equipment, Oneonta, NY, USA) due to the adherent nature of these cells. L5178Y-R cells and PBMC were maintained in RPMI-1640 culture medium supplemented with 10% FBS and 1% antibiotic/antimycotic solution. All the tests performed with these cells were carried out in 96-well curved-bottom plastic microplates (Corning®) because these cells are non-adherent.
(§3) Prior to the application of the treatments, the cells were incubated at 37 °C in a humidified incubator (Sanyo MCO-19AIC CO2 Incubator, Sanyo Electric Co., Ltd., Gunma-ken, Japan) with 5% CO2 for 24 h for adaptation. The cell viability was determined by MTT assay; MTT color intensity was directly associated with the number of living cells after 72 h of incubation. Mitochondrial enzymes, specifically succinate dehydrogenase, reduce MTT tetrazolium salt to form formazan; this reaction produces a purple–blue product that can be measured using spectrophotometry since the in vitro cell viability can be tested using the MTT colorimetric assay. Therefore, we decided to perform an MTT assay to correlate mitochondrial activity with viability. […]

[3] = system: murine lymphoma (L5178Y-R) cells; assay: MTT cell viability assay in L5178Y-R cells; type: cell-based; conditions: Mus musculus, L5178, 72 h of incubation, mean ± SD, read-out: IC50 (µg/mL) in Cells, L5178 Y-R
Description: as §2
(§4) Prior to the application of the treatments, the cells were incubated at 37 °C in a humidified incubator (Sanyo MCO-19AIC CO2 Incubator, Sanyo Electric Co., Ltd., Gunma-ken, Japan) with 5% CO2 for 24 h for adaptation. The cell viability was determined by MTT assay; MTT color intensity was directly associated with the number of living cells after 72 h of incubation. Mitochondrial enzymes, specifically succinate dehydrogenase, reduce MTT tetrazolium salt to form formazan; this reaction produces a purple–blue product that can be measured using spectrophotometry since the in vitro cell viability can be tested using the MTT colorimetric assay.

[4] = system: HEP-G2 (human hepatocellular carcinoma) cells; assay: MTT cell viability assay in HEP-G2 cells; type: cell-based; conditions: HepG2, 72 h of incubation, mean ± SD
Description: as §2, §4

[5] = system: human erythrocytes, AAPH-induced hemolysis; assay: Anti-hemolytic test by the AAPH assay; type: cell-based; conditions: Erythrocyte; protection against AAPH radical (150 mM) in human erythrocytes, mean ± SD
Description: The AAPH inhibition test, as previously reported, was used to determine the anti-hemolytic activity. Hemolysis was induced by the AAPH radical (150 mM, prepared in PBS) as a positive control. The concentrations of the treatments were the same as in the hemolysis assay plus the AAPH.

[6] = Hemolytic test; type: cell-based; conditions: human red blood cells (erythrocytes), pH 7.2; concentration causing 50% hemolysis of human red blood cells, mean ± SD
Description: The hemolytic activity was assessed using the hemolysis test. Treatments evaluated were prepared in PBS (pH 7.2 ± 0.2) in concentrations ranging from 10, 100, 200, 400, 600, 800, 1000, and 2000 µg/mL; the percent (%) of hemolysis was determined by measuring the Abs at 540 nm for each treatment.

[7] = system: VERO (monkey kidney epithelial) non-tumoral cells; assay: MTT cell viability assay in VERO cells; type: cell-based, African green monkey; conditions: Primates, 72 h of incubation, mean ± SD
Description: as §2, §3

[8] = system: Artemia salina nauplii; assay: Lethality in Artemia salina; type: in vivo; conditions: 24 h of exposure, mean ± SD
Description: Artificial seawater was prepared using 20 g of sea salt and 6 mg of brewer’s yeast dissolved in 500 mL of distilled H2O (pH 7.8). Prior to the assay, the artificial seawater was conditioned by supplying air with an aquarium pump for 24 h. For the hatching of A. salina nauplii, a rectangular glass container (17 × 14 × 7 cm) was adapted, with a dark section where the cysts were incubated and an illuminated area that allows only hatched nauplii to be obtained by means of phototropism. After an incubation period of 48 h under room temperature conditions of 25 ± 2.0 °C (aeration and constant light), the test was carried out using 96-well transparent plastic microplates with a concave bottom (Corning®), in which 20 nauplii and different concentrations of the treatments (10, 100, 200, 400, 600, 800, 1000, and 2000 µg/mL) were deposited in a final volume of 200 µL per well [46]. […] Counting of live and dead larvae in each well of the microplate was performed with the use of a stereoscope microscope. […] A. salina nauplii viability was determined by Formula (6) as follows:(6) A. salina Viability %= Survival Treatment Count/ Survival Control Count×100

[9] = DPPH scavenging test; conditions: 50% decrease of DPPH, 517 nm, mean ± SD
Description: as §1
The antioxidant activity was assessed using the DPPH radical assay, where the antioxidant activity (free radical scavenging capacity) was quantified as IC50 in µg/mL. […] The DPPH radical scavenging assay was conducted in a 96-well flat-bottom plastic microplate (Corning®). The percentage inhibition of DPPH at 517 nm was determined using a UV/VIS spectrophotometer and calculated using Formula (7) as follows:(7) DPPH scavenging %=Abs517 Control−Abs517 Sample/Abs517 Control×100

[10] = system: murine macrophages (J774A.1 cell line); assay: Nitric oxide production (Griess reagent); type: cell-based
Description: The macrophage cultures were incubated in triplicate in 25 cm^2 tissue culture flasks (Corning Glass Works, Corning®, Oneonta, NY, USA) in a total volume of 7 mL of RPMI-1640 culture medium supplemented with 10% FBS and 1% antibiotic/antimycotic solution and maintained at 37 °C in 5% CO2. A concentration of 200 ng/mL of E. coli O26:B6 LPS served as an inflammatory-inducing agent to stimulate NO production. NO production was assessed by measuring nitrite accumulation in the supernatant using Griess reagent. A standard curve was generated using NaNO2 (1 M) to interpret the test results.

Row | SMILES | ABTS IC50 [1] | IC50 [2] [µg/mL] | IC50 [3] [µg/mL] | IC50 [4] [µg/mL] | IC50 [5] [µg/mL] | IC50 [6] [µg/mL] | IC50 [7] [µg/mL] | A. salina LD50 [8] | DPPH IC50 [9] | activity in response to NO production ([10]; 0.98 to 500 µg/mL) | NO production in macrophages compared to LPS ([10]; 0.5 h, 0.00–500 µg/mL) | NO production in macrophages compared to LPS ([10]; 4 h, 0.00–31.25 µg/mL) | NO production in macrophages compared to LPS ([10]; 4 h, 62.50–250 µg/mL) | NO production in macrophages compared to LPS ([10]; 4 h, 500–1000 µg/mL) | NO production in macrophages compared to LPS ([10]; 24 h, 0.00–500 µg/mL) | NO production in macrophages compared to LPS ([10]; BER at 1000 µg/mL, 0.5, 4 and 24 h)
1 | COc1ccc2cc3[n+](cc2c1OC)CCc1cc2c(cc1-3)OCO2 [BER, 16,17-dimethoxy-5,7-dioxa-13-azoniapentacyclo [11.8.0.0^2,10.0^4,8.0^15,20]henicosa-1(13),2,4(8),9,14,16,18,20-octaene] | 40.29 ± 9.02 ^a,* µg/mL | 27.1 ± 7.16 | < 5 | 56.9 ± 9.45 | 36.9 ± 5.49 | 713 ± 38 | 908 ± 31.9 | 178.00 µg/mL and 178.00 ± 29.70 ^b,** µg/mL | 44.80 ± 1.22 ^a,* µg/mL | immunomodulatory activity | no significant increase in NO production | no increase in NO production | behaved in the same way as LPS | increase in NO production greater than that of LPS | no increase in ON production | increased NO production; also recorded: significantly greater effect on NO production compared to LPS
2 | O=C1O[C@H]([C@@H](O)CO)C(O)=C1O [Vitamin C, ascorbic acid] | 81.76 ± 6.30 ^b µg/mL |  |  |  |  |  |  |  | 68.90 ± 3.11 ^b µg/mL |  |  |  |  |  |  | 
